Data set [1] can be described thus: Determination of thermodynamic solubility in phosphate buffer. The format is physicochemical. The conditions noted are these: pH 7.4, aqueous buffer, thermodynamic from solid, ammonium phosphate buffer pH7.4, 290 mOsm, 37° C., nominal 1 mg/mL, read-out: Solubility in PO4 buffer. How it is done: Determination of Thermodynamic Solubility in Phosphate Buffer
The thermodynamic solubility of compound was determined in Ammonium Phosphate Buffer (pH7.4, 290 mOsm). Compounds were made up at a nominal concentration of 1 mg/mL, vortexed then placed on a shaker for 1 h, 37° C. at approximately 950 rpm. Following incubation samples were transferred to eppendorf tubes and centrifuged at 15,000 g (r.c.f.) for 10 minutes at 37° C. The concentration of compound in the supernatant was determined by LC-MS/MS analysis using a calibration line prepared from a DMSO stock.

Data set [2] deals with Human plasma kallikrein (Homo sapiens (Human), UniProt P03952). Kind of data set: Determination of the IC50 for plasma kallikrein. The conditions noted are these: 37° C., read-out: IC50 (human PKal). The format is biochemical. A digest of the protocol:
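Human plasma kallikrein incubated at 37° C with fluorogenic substrate H-DPro-Phe-Arg-AFC and varying compound concentrations. Initial reaction rate followed by absorbance change at 410 nm to give residual activity and IC50.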

The nature of data set [3]: physchem. The conditions noted are these: for solubility: pH 7, aqueous buffer, kinetic from dmso stock. The procedure:
Determination of the Kinetic Solubility in Phosphate Buffer
After shaking for approximately 30 seconds the reduction in light transmission of these samples, at 650 nm, was measured (Molecular Devices Spectromax UV/visible spectrophotometer). A second measurement was taken at approximately 30 seconds later.

In data set [4] the target is Human KLK1 (Homo sapiens (Human), UniProt P06870). Kind of data set: Determination of the IC50 for KLK1. The format is biochemical. Conditions: Human KLK1, 37° C., substrate H-DVal-Leu-Arg-AFC. A digest of the protocol:
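Human KLK1 incubated at 37° C with fluorogenic substrate H-DVal-Leu-Arg-AFC and a range of test compound concentrations. Residual activity taken as initial reaction rate from absorbance change at 410 nm; IC50 derived from these rates.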

The target of data set [5] is Factor XIIa (Homo sapiens (Human), UniProt P00748). Kind of data set: Determination of enzyme selectivity: Factor XIIa. Format: biochemical. Conditions: fluorogenic substrate at Km concentration. The procedure: Determination of Enzyme Selectivity
Factor XIIa, sequence (P00748 373-615): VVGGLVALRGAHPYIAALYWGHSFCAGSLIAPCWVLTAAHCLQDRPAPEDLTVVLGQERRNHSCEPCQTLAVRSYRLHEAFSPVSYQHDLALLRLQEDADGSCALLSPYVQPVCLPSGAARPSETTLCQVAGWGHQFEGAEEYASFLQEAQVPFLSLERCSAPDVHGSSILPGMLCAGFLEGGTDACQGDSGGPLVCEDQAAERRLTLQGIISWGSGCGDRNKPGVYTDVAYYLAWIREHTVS
Human serine protease enzymes plasmin, thrombin, trypsin, Factor Xa and Factor XIIa were assayed for enzymatic activity using an appropriate fluorogenic substrate. Protease activity was measured by monitoring the accumulation of liberated fluorescence from the substrate over 5 minutes. The linear rate of fluorescence increase per minute was expressed as percentage (%) activity. The Km for the cleavage of each substrate was determined by standard transformation of the Michaelis-Menten equation.

The mark [6] stands for this setting: fluorogenic substrate H-DPro-Phe-Arg-AFC.

In brackets after ≈: the same amount, converted by molar mass. Like-named read-outs stand apart in the source and are kept apart here.

Human KLK1, sequence (P06870 25-262): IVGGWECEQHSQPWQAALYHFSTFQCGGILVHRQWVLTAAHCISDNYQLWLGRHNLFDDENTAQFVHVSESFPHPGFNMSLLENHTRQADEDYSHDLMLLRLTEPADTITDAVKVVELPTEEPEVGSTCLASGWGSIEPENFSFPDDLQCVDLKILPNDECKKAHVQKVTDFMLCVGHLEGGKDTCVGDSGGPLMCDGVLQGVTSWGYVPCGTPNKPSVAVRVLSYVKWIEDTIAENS
Human plasma kallikrein, sequence (P03952 391-638): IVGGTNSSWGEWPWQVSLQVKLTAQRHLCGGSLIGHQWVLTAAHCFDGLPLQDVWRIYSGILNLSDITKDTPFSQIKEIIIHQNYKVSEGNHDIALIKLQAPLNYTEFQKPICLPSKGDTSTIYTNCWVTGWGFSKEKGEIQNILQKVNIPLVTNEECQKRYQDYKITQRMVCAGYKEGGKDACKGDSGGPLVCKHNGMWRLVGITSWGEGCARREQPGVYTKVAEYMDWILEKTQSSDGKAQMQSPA
Human plasma kallikrein, sequence (P03952 20-390 partner): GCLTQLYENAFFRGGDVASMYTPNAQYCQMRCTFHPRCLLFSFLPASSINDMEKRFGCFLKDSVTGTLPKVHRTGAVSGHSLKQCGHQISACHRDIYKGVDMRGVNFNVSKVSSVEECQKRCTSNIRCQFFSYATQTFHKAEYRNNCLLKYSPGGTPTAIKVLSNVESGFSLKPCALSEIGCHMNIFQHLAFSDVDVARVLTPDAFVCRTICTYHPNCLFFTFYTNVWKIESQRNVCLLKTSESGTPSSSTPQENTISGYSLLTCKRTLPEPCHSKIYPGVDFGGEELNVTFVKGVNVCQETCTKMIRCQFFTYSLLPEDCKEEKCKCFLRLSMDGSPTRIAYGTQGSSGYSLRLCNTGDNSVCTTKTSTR

For the compound `CCOc1ccc(C[C@@H](NC(=O)c2ccccc2)C(=O)N(C)[C@@H](Cc2ccccc2)C(=O)NCc2ccc(CN)cc2)cc1` [Example 38, N-[(R)-1-{[(S)-1-(4-Aminomethyl-benzylcarbamoyl)-2-phenyl-ethyl]-methyl-carbamoyl}-2-(4-ethoxy-phenyl)-ethyl]-benzamide], the solubility at 1 h in data set [1] is 14.6 µg/mL (≈ 24.5 µM). Further, the IC50 in data set [2] (setting [6]) was 0.047 µM; in data set [4] (Table 12), > 10 µM. Besides, the solubility in PO4 buffer in data set [3] (pH 7) was > 235 µM.
Consider `CCOc1ccc(C[C@@H](NC(=O)c2cccc3ccccc23)C(=O)N[C@@H](Cc2ccccc2)C(=O)NCc2ccc(CN)cc2)cc1` [Example 54, Naphthalene-1-carboxylic acid [(R)-1-[(S)-1-(4-aminomethyl-benzylcarbamoyl)-2-phenyl-ethylcarbamoyl]-2-(4-ethoxy-phenyl)-ethyl]-amide], for which the solubility at 1 h in data set [1] was 0.8 µg/mL (≈ 1.27 µM). In addition, the IC50 in data set [2] (setting [6]) amounted to 0.083 µM. Further, the solubility in data set [3] came out at 12 µM (≈ 7.55 µg/mL).
Taken in the same sequence, the figures for `CCOc1ccc(C[C@@H](NC(=O)c2ccc(Cl)cc2)C(=O)N[C@@H](Cc2ccccc2)C(=O)NCc2ccc(CN)cc2)cc1` [Example 55, N-[(R)-1-[(S)-1-(4-Aminomethyl-benzylcarbamoyl)-2-phenyl-ethylcarbamoyl]-2-(4-ethoxy-phenyl)-ethyl]-4-chloro-benzamide] were 1.5 µg/mL (≈ 2.45 µM), 0.031 µM and 36 µM (≈ 22.1 µg/mL).
Turning to `CCOc1ccc(C[C@@H](NC(=O)c2ccc(C(F)(F)F)cc2)C(=O)N[C@@H](Cc2ccccc2)C(=O)NCc2ccc(CN)cc2)cc1` [Example 56, N-[(R)-1-[(S)-1-(4-Aminomethyl-benzylcarbamoyl)-2-phenyl-ethylcarbamoyl]-2-(4-ethoxy-phenyl)-ethyl]-4-trifluoromethyl-benzamide], the solubility at 1 h in data set [1] turned out to be 0.9 µg/mL (≈ 1.39 µM). In addition, the IC50 in data set [2] (setting [6]) is 0.5 µM. The solubility in data set [3] is 36 µM (≈ 23.3 µg/mL).
In the same order, the values of `CCOc1ccc(C[C@@H](NC(=O)c2ccc(Cl)cc2Cl)C(=O)N[C@@H](Cc2ccccc2)C(=O)NCc2ccc(CN)cc2)cc1` [Example 58, N-[(R)-1-[(S)-1-(4-Aminomethyl-benzylcarbamoyl)-2-phenyl-ethylcarbamoyl]-2-(4-ethoxy-phenyl)-ethyl]-2,4-dichloro-benzamide] are 4.1 µg/mL (≈ 6.33 µM), 0.17 µM and 36 µM (≈ 23.3 µg/mL).
Taken in the same sequence, the figures for `CCOc1ccc(C[C@@H](NC(=O)c2ccc(F)c(F)c2)C(=O)N[C@@H](Cc2ccccc2)C(=O)NCc2ccc(CN)cc2)cc1` [Example 59, N-[(R)-1-[(S)-1-(4-Aminomethyl-benzylcarbamoyl)-2-phenyl-ethylcarbamoyl]-2-(4-ethoxy-phenyl)-ethyl]-3,4-difluoro-benzamide] were 7.7 µg/mL (≈ 12.5 µM), 0.078 µM and 36 µM (≈ 22.1 µg/mL).
Turning to `CCOc1ccc(C[C@@H](NC(=O)Cc2ccccc2)C(=O)N[C@@H](Cc2ccccc2)C(=O)NCc2ccc(CN)cc2)cc1` [Example 85, (S)-N-(4-Aminomethyl-benzyl)-2-[(R)-3-(4-ethoxy-phenyl)-2-phenylacetylamino-propionylamino]-3-phenyl-propionamide], the IC50 in data set [2] (substrate H-DPro-Phe-Arg-AFC) was 0.485 µM; in data set [5], > 10 µM; in data set [4] (Table 13) it was 2.9 µM.
Take `CCOc1ccc(C[C@@H](NC(=O)C23CC4CC(CC(C4)C2)C3)C(=O)N[C@@H](Cc2ccccc2)C(=O)NCc2ccc(CN)cc2)cc1` [Example 91, Adamantane-1-carboxylic acid [(R)-1-[(S)-1-(4-aminomethyl-benzylcarbamoyl)-2-phenyl-ethylcarbamoyl]-2-(4-ethoxy-phenyl)-ethyl]-amide]: the IC50 is 2.08 µM in data set [2] (substrate H-DPro-Phe-Arg-AFC), > 10 µM in data set [5] and > 10 µM in data set [4] (Table 13).
As to `CCOc1ccc(C[C@@H](NC(=O)c2ccccn2)C(=O)N[C@@H](Cc2ccccc2)C(=O)NCc2ccc(CN)c(Cl)c2)cc1` [Example 159, Pyridine-2-carboxylic acid [(R)-1-[(S)-1-(4-aminomethyl-3-chloro-benzylcarbamoyl)-2-phenyl-ethylcarbamoyl]-2-(4-ethoxy-phenyl)-ethyl]-amide], in data set [1], the solubility at 1 h was found to be 1.15 µg/mL (≈ 1.87 µM). Moreover, the IC50 was 0.015 µM in data set [2] (substrate H-DPro-Phe-Arg-AFC) and > 10 µM in data set [4] (Table 13).
Taken in the same sequence, the figures for `CCOc1ccc(C[C@@H](NC(=O)c2ccc(OC)cc2)C(=O)N[C@@H](Cc2cccnc2)C(=O)NCc2ccc(CN)cc2)cc1` [Example 160, N-[(R)-1-[(S)-1-(4-Aminomethyl-benzylcarbamoyl)-2-pyridin-3-yl-ethylcarbamoyl]-2-(4-ethoxy-phenyl)-ethyl]-4-methoxy-benzamide] were 20.4 µg/mL (≈ 33.5 µM), 0.01 µM and > 10 µM.
As to `CCOc1ccc(C[C@@H](NC(=O)c2cccs2)C(=O)N[C@@H](Cc2cccnc2)C(=O)NCc2ccc(CN)cc2)cc1` [Example 162, Thiophene-2-carboxylic acid [(R)-1-[(S)-1-(4-aminomethyl-benzylcarbamoyl)-2-pyridin-3-yl-ethylcarbamoyl]-2-(4-ethoxy-phenyl)-ethyl]-amide], the solubility at 1 h in data set [1] came out at 69.7 µg/mL (≈ 119 µM). Further, the IC50 in data set [2] (substrate H-DPro-Phe-Arg-AFC) was 0.01 µM; in data set [4] (Table 13), > 10 µM.
In the same order, the values of `CCOc1ccc(C[C@@H](NC(=O)c2ccc(Cl)cc2)C(=O)N[C@@H](Cc2cccnc2)C(=O)NCc2ccc(CN)cc2)cc1` [Example 173, N-[(R)-1-[(S)-1-(4-Aminomethyl-benzylcarbamoyl)-2-pyridin-3-yl-ethylcarbamoyl]-2-(4-ethoxy-phenyl)-ethyl]-4-chloro-benzamide] are 2.38 µg/mL (≈ 3.88 µM), 0.213 µM and > 10 µM.
In the same order, the values of `CCOc1ccc(C[C@@H](NC(=O)c2ccno2)C(=O)N[C@@H](Cc2cccnc2)C(=O)NCc2ccc(CN)cc2)cc1` [Example 174, Isoxazole-5-carboxylic acid [(R)-1-[(S)-1-(4-aminomethyl-benzylcarbamoyl)-2-pyridin-3-yl-ethylcarbamoyl]-2-(4-ethoxy-phenyl)-ethyl]-amide] are 233 µg/mL (≈ 408 µM), 0.045 µM and > 10 µM.
Regarding `CCOc1ccc(C[C@@H](NC(=O)c2sccc2Cl)C(=O)N[C@@H](Cc2cccnc2)C(=O)NCc2ccc(CN)cc2)cc1` [Example 175, 3-Chloro-thiophene-2-carboxylic acid [(R)-1-[(S)-1-(4-aminomethyl-benzylcarbamoyl)-2-pyridin-3-yl-ethylcarbamoyl]-2-(4-ethoxy-phenyl)-ethyl]-amide], the solubility at 1 h in data set [1] was determined as 23.4 µg/mL (≈ 37.7 µM). The IC50 in data set [2] (substrate H-DPro-Phe-Arg-AFC) was 0.003 µM; in data set [4] (Table 13), > 10 µM.
Taken in the same sequence, the figures for `CCOc1ccc(C[C@@H](NC(=O)c2ccncc2)C(=O)N[C@@H](Cc2csc3ccccc23)C(=O)NCc2ccc(CN)cc2)cc1` [Example 178, N-[(R)-1-[(S)-1-(4-Aminomethyl-benzylcarbamoyl)-2-benzo[b]thiophen-3-yl-ethylcarbamoyl]-2-(4-ethoxy-phenyl)-ethyl]-isonicotinamide] were 1.54 µg/mL (≈ 2.42 µM), 0.042 µM and > 10 µM.
In the same order, the values of `CCOc1ccc(C[C@@H](NC(=O)c2sccc2NC(C)=O)C(=O)N[C@@H](Cc2ccccc2)C(=O)NCc2ccc(CN)cc2)cc1` [Example 179, 3-Acetylamino-thiophene-2-carboxylic acid-[(R)-1-[(S)-1-(4-aminomethyl-benzylcarbamoyl)-2-phenyl-ethylcarbamoyl]-2-(4-ethoxy-phenyl)-ethyl]-amide] are 17.7 µg/mL (≈ 27.6 µM), 0.022 µM and 7.2 µM.
Taken in the same sequence, the figures for `CCOc1ccc(C[C@@H](NC(=O)c2sccc2C)C(=O)N[C@@H](Cc2cccnc2)C(=O)NCc2ccc(CN)cc2)cc1` [Example 181, 3-Methyl-thiophene-2-carboxylic acid [(R)-1-[(S)-1-(4-aminomethyl-benzylcarbamoyl)-2-pyridin-3-yl-ethylcarbamoyl]-2-(4-ethoxy-phenyl)-ethyl]-amide] were 61.6 µg/mL (≈ 103 µM), 0.01 µM and > 10 µM.
`CCOc1ccc(C[C@@H](NC(=O)c2ccccc2)C(=O)N[C@@H](Cc2ccc(F)c(F)c2)C(=O)NCc2ccc(CN)cc2)cc1` [Example 200, N—[(R)-1-[(S)-1-(4-Aminomethyl-benzylcarbamoyl)-2-(3,4-difluoro-phenyl)-ethylcarbamoyl]-2-(4-ethoxy-phenyl)-ethyl]-benzamide]: the solubility at 1 h in data set [1] was 0.22 µg/mL (≈ 0.358 µM). For the same compound, the values for the IC50 in data set [2] (substrate H-DPro-Phe-Arg-AFC) and in data set [4] (Table 13) were 0.045 µM and 7.6 µM, respectively.

One may read the solubility as the concentration that dissolves in the medium under given conditions. A word on the IC50: it is the midpoint of a concentration-inhibition curve.

The values above are taken from patent publication US9234000B2, “Benzylamine derivatives as inhibitors of plasma kallikrein” (KalVista Pharmaceuticals Limited, priority 2011, dated 2016).
